Test results from patent publication US10526585B2 (priority 2015, dated 2020).

Type: biochemical
Details: pH 7.5

In order of falling “DON [ppm]” value:
1. COC1=C(OC)C(=O)C(CC=C(C)C)=C(C)C1=O [coenzyme Q1]  8.58 ppm
2. CN(C)c1ccc2nc3ccc(=[N+](C)C)cc-3sc2c1 [methylene blue]  6.88 ppm
3. [Cu+2] [Cu^2+]  2.61 ppm
4. [Mn+2] [Mn^2+]  2.57 ppm
5. [Zn+2] [Zn^2+]  2.46 ppm
6. topaquinone [TPQ]  2.41 ppm
7. tryptophan tryptophylquinone [TTQ]  2.32 ppm
8. [Fe+2] [Fe^2+]  2.17 ppm
9. N[C@@H](CCCCNC1=CC(=O)C(=O)C=C1C[C@H](N)C(=O)O)C(=O)O [LTQ, lysine tyrosylquinone]  2.04 ppm
10. [Ca+2] [Ca^2+]  1.98 ppm
11. COS(=O)(=O)[O-].C[n+]1c2ccccc2nc2ccccc21 [PMS, phenazine methosulphate]  1.95 ppm
12. O=C(O)c1cc(C(=O)O)c2c(n1)C(=O)C(=O)c1cc(C(=O)O)[nH]c1-2 [PCC, pyrroloquinoline quinone]  1.94 ppm
13. [Mg+2] [Mg^2+]  1.90 ppm
